In patent publication US8952024B2, “Herbicidal pyrimidone derivatives” (E I du Pont de Nemours and Company, priority 2009, dated 2015):

Columns and labels:
Test in all cases: Test B pre-/postemergence plant response
Format in all cases: in vivo
[1] = tested on: downy bromegrass (Bromus tectorum); details: for Bromegrass, Downy plant response rating (0 to 100 scale): 62 g ai/ha, postemergence, 0 is no effect, 100 is complete control; for Plant response rating, Bromegrass, Downy: Postemergence
Summary of the method: (§1)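 Each species received compound formulated in non-phytotoxic solvent with surfactant, either at planting into a loam and sand blend or as a foliar spray once plants reached 2 to 18 cm in peat-based medium. Plants stayed in the greenhouse 13 to 15 days before visual evaluation against controls, scored 0 (no effect) to 100 (complete control).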

[2] = tested on: giant foxtail (Setaria faberii); details: Postemergence
Summary of the method: as §1

[3] = tested on: goosegrass (Eleusine indica); details: Postemergence
Summary of the method: as §1

[4] = tested on: green foxtail (Setaria viridis); details: Postemergence
Summary of the method: as §1

[5] = tested on: johnsongrass (Sorghum halepense); details: Postemergence
Summary of the method: as §1

kochia (Kochia scoparia) = details: Postemergence
Summary of the method: as §1

[6] = tested on: lambsquarters (Chenopodium album); details: Postemergence
Summary of the method: as §1

[7] = tested on: large crabgrass (Digitaria sanguinalis); details: Postemergence
Summary of the method: as §1

[8] = tested on: pigweed (Amaranthus retroflexus); details: Postemergence
Summary of the method: as §1

[9] = tested on: velvetleaf (Abutilon theophrasti); details: Postemergence
Summary of the method: as §1

[10] = tested on: wheat (Triticum aestivum); details: Postemergence
Summary of the method: as §1

[11] = tested on: woolly cupgrass (Eriochloa villosa); details: Postemergence
Summary of the method: as §1

[12] = tested on: yellow nutsedge (Cyperus esculentus); details: Postemergence
Summary of the method: as §1

[13] = 31 g ai/ha, 0 to 100 scale (0 no effect, 100 complete control)
[14] = 125 g ai/ha, scale 0 to 100 (0 no effect, 100 complete control)
[15] = 250 g ai/ha, scale 0 to 100 (0 no effect, 100 complete control), 13 to 15 days

SMILES: O=C1CCCC(O)=C1C(=O)c1cnc(-c2ccccc2)n(C2CCSCC2)c1=O [Compound 164]
- Bromegrass, Downy plant response rating (0 to 100 scale) ([1]; 13 to 15 days): 80
- Plant response rating, Bromegrass, Downy [1, 13]: 40
- Plant response rating, Bromegrass, Downy [1, 14]: 85
- Plant response rating, Bromegrass, Downy [1, 15]: 95
- Plant response rating, Foxtail, Giant [2, 13]: 90
- Plant response rating, Foxtail, Giant [2, 14]: 98
- Plant response rating, Foxtail, Giant [2, 15]: 100
- Plant response rating, Goosegrass [3, 13]: 85
- Plant response rating, Goosegrass [3, 14]: 98
- Plant response rating, Goosegrass [3, 15]: 98
- Plant response rating, Foxtail, Green [4, 13]: 70
- Plant response rating, Foxtail, Green [4, 14]: 98
- Plant response rating, Foxtail, Green [4, 15]: 100
- Plant response rating, Johnsongrass [5, 13]: 45
- Plant response rating, Johnsongrass [5, 14]: 95
- Plant response rating, Johnsongrass [5, 15]: 98
- Plant response rating, Kochia (kochia (Kochia scoparia); [13]): 98
- Plant response rating, Kochia (kochia (Kochia scoparia); [14]): 100
- Plant response rating, Kochia (kochia (Kochia scoparia); [15]): 100
- Plant response rating, Lambsquarters [6, 13]: 98
- Plant response rating, Lambsquarters [6, 14]: 100
- Plant response rating, Lambsquarters [6, 15]: 100
- Plant response rating, Crabgrass, Large [7, 13]: 95
- Plant response rating, Crabgrass, Large [7, 14]: 98
- Plant response rating, Crabgrass, Large [7, 15]: 100
- Plant response rating, Pigweed [8, 13]: 98
- Plant response rating, Pigweed [8, 14]: 100
- Plant response rating, Pigweed [8, 15]: 100
- Plant response rating, Velvetleaf [9, 13]: 70
- Plant response rating, Velvetleaf [9, 14]: 80
- Plant response rating, Velvetleaf [9, 15]: 95
- Plant response rating, Wheat [10, 13]: 0
- Plant response rating, Wheat [10, 14]: 35
- Plant response rating, Wheat [10, 15]: 50
- Plant response rating, Cupgrass, Woolly [11, 13]: 75
- Plant response rating, Cupgrass, Woolly [11, 14]: 98
- Plant response rating, Cupgrass, Woolly [11, 15]: 100
- Plant response rating, Nutsedge, Yellow [12, 13]: 40
- Plant response rating, Nutsedge, Yellow [12, 14]: 70
- Plant response rating, Nutsedge, Yellow [12, 15]: 75

SMILES: O=C1CCCC(O)=C1C(=O)c1cnc(-c2cc(F)cc(F)c2)n(C2CCCCC2)c1=O [Compound 181]
- Bromegrass, Downy plant response rating (0 to 100 scale) ([1]; 13 to 15 days): 50
- Plant response rating, Bromegrass, Downy [1, 13]: 40
- Plant response rating, Bromegrass, Downy [1, 14]: 60
- Plant response rating, Bromegrass, Downy [1, 15]: 85
- Plant response rating, Foxtail, Giant [2, 13]: 98
- Plant response rating, Foxtail, Giant [2, 14]: 100
- Plant response rating, Foxtail, Giant [2, 15]: 100
- Plant response rating, Goosegrass [3, 13]: 95
- Plant response rating, Goosegrass [3, 14]: 100
- Plant response rating, Goosegrass [3, 15]: 100
- Plant response rating, Foxtail, Green [4, 13]: 70
- Plant response rating, Foxtail, Green [4, 14]: 95
- Plant response rating, Foxtail, Green [4, 15]: 98
- Plant response rating, Johnsongrass [5, 13]: 100
- Plant response rating, Johnsongrass [5, 14]: 100
- Plant response rating, Johnsongrass [5, 15]: 100
- Plant response rating, Kochia (kochia (Kochia scoparia); [13]): 65
- Plant response rating, Kochia (kochia (Kochia scoparia); [14]): 100
- Plant response rating, Kochia (kochia (Kochia scoparia); [15]): 100
- Plant response rating, Lambsquarters [6, 13]: 100
- Plant response rating, Lambsquarters [6, 14]: 100
- Plant response rating, Lambsquarters [6, 15]: 100
- Plant response rating, Crabgrass, Large [7, 13]: 98
- Plant response rating, Crabgrass, Large [7, 14]: 100
- Plant response rating, Crabgrass, Large [7, 15]: 100
- Plant response rating, Pigweed [8, 13]: 100
- Plant response rating, Pigweed [8, 14]: 100
- Plant response rating, Pigweed [8, 15]: 100
- Plant response rating, Velvetleaf [9, 13]: 100
- Plant response rating, Velvetleaf [9, 14]: 100
- Plant response rating, Velvetleaf [9, 15]: 100
- Plant response rating, Wheat [10, 13]: 40
- Plant response rating, Wheat [10, 14]: 50
- Plant response rating, Wheat [10, 15]: 70
- Plant response rating, Cupgrass, Woolly [11, 13]: 80
- Plant response rating, Cupgrass, Woolly [11, 14]: 100
- Plant response rating, Cupgrass, Woolly [11, 15]: 100
- Plant response rating, Nutsedge, Yellow [12, 13]: 60
- Plant response rating, Nutsedge, Yellow [12, 14]: 80
- Plant response rating, Nutsedge, Yellow [12, 15]: 85

SMILES: Cc1ccc(Cl)cc1-n1c(-c2cccc(F)c2)ncc(C(=O)C2=C(O)CCCC2=O)c1=O [Compound 184]
- Bromegrass, Downy plant response rating (0 to 100 scale) ([1]; 13 to 15 days): 50
- Plant response rating, Bromegrass, Downy [1, 13]: 40
- Plant response rating, Bromegrass, Downy [1, 14]: 50
- Plant response rating, Bromegrass, Downy [1, 15]: 60
- Plant response rating, Foxtail, Giant [2, 13]: 98
- Plant response rating, Foxtail, Giant [2, 14]: 100
- Plant response rating, Foxtail, Giant [2, 15]: 100
- Plant response rating, Goosegrass [3, 13]: 100
- Plant response rating, Goosegrass [3, 14]: 100
- Plant response rating, Goosegrass [3, 15]: 100
- Plant response rating, Foxtail, Green [4, 13]: 30
- Plant response rating, Foxtail, Green [4, 14]: 85
- Plant response rating, Foxtail, Green [4, 15]: 98
- Plant response rating, Johnsongrass [5, 13]: 100
- Plant response rating, Johnsongrass [5, 14]: 100
- Plant response rating, Johnsongrass [5, 15]: 100
- Plant response rating, Kochia (kochia (Kochia scoparia); [13]): 0
- Plant response rating, Kochia (kochia (Kochia scoparia); [14]): 5
- Plant response rating, Kochia (kochia (Kochia scoparia); [15]): 10
- Plant response rating, Lambsquarters [6, 13]: 80
- Plant response rating, Lambsquarters [6, 14]: 100
- Plant response rating, Lambsquarters [6, 15]: 100
- Plant response rating, Crabgrass, Large [7, 13]: 100
- Plant response rating, Crabgrass, Large [7, 14]: 100
- Plant response rating, Crabgrass, Large [7, 15]: 100
- Plant response rating, Pigweed [8, 13]: 70
- Plant response rating, Pigweed [8, 14]: 75
- Plant response rating, Pigweed [8, 15]: 100
- Plant response rating, Velvetleaf [9, 13]: 85
- Plant response rating, Velvetleaf [9, 14]: 100
- Plant response rating, Velvetleaf [9, 15]: 100
- Plant response rating, Wheat [10, 13]: 30
- Plant response rating, Wheat [10, 14]: 55
- Plant response rating, Wheat [10, 15]: 60
- Plant response rating, Cupgrass, Woolly [11, 13]: 75
- Plant response rating, Cupgrass, Woolly [11, 14]: 100
- Plant response rating, Cupgrass, Woolly [11, 15]: 100
- Plant response rating, Nutsedge, Yellow [12, 13]: 35
- Plant response rating, Nutsedge, Yellow [12, 14]: 45
- Plant response rating, Nutsedge, Yellow [12, 15]: 75

SMILES: O=C1CCCC(O)=C1C(=O)c1cnc(-c2cccc(F)c2)n(C2CCCCC2)c1=O [Compound 187]
- Bromegrass, Downy plant response rating (0 to 100 scale) ([1]; 13 to 15 days): 30
- Plant response rating, Bromegrass, Downy [1, 13]: 5
- Plant response rating, Bromegrass, Downy [1, 14]: 35
- Plant response rating, Bromegrass, Downy [1, 15]: 40
- Plant response rating, Foxtail, Giant [2, 13]: 98
- Plant response rating, Foxtail, Giant [2, 14]: 100
- Plant response rating, Foxtail, Giant [2, 15]: 100
- Plant response rating, Goosegrass [3, 13]: 85
- Plant response rating, Goosegrass [3, 14]: 100
- Plant response rating, Goosegrass [3, 15]: 100
- Plant response rating, Foxtail, Green [4, 13]: 65
- Plant response rating, Foxtail, Green [4, 14]: 98
- Plant response rating, Foxtail, Green [4, 15]: 98
- Plant response rating, Johnsongrass [5, 13]: 90
- Plant response rating, Johnsongrass [5, 14]: 100
- Plant response rating, Johnsongrass [5, 15]: 100
- Plant response rating, Kochia (kochia (Kochia scoparia); [13]): 40
- Plant response rating, Kochia (kochia (Kochia scoparia); [14]): 70
- Plant response rating, Kochia (kochia (Kochia scoparia); [15]): 80
- Plant response rating, Lambsquarters [6, 13]: 98
- Plant response rating, Lambsquarters [6, 14]: 100
- Plant response rating, Lambsquarters [6, 15]: 100
- Plant response rating, Crabgrass, Large [7, 13]: 85
- Plant response rating, Crabgrass, Large [7, 14]: 100
- Plant response rating, Crabgrass, Large [7, 15]: 100
- Plant response rating, Pigweed [8, 13]: 100
- Plant response rating, Pigweed [8, 14]: 100
- Plant response rating, Pigweed [8, 15]: 100
- Plant response rating, Velvetleaf [9, 13]: 90
- Plant response rating, Velvetleaf [9, 14]: 100
- Plant response rating, Velvetleaf [9, 15]: 100
- Plant response rating, Wheat [10, 13]: 0
- Plant response rating, Wheat [10, 14]: 5
- Plant response rating, Wheat [10, 15]: 5
- Plant response rating, Cupgrass, Woolly [11, 13]: 80
- Plant response rating, Cupgrass, Woolly [11, 14]: 85
- Plant response rating, Cupgrass, Woolly [11, 15]: 95
- Plant response rating, Nutsedge, Yellow [12, 13]: 45
- Plant response rating, Nutsedge, Yellow [12, 14]: 65
- Plant response rating, Nutsedge, Yellow [12, 15]: 75

SMILES: O=C1CCCC(O)=C1C(=O)c1cnc(-c2cccs2)n(C2CCCCC2)c1=O [Compound 189]
- Bromegrass, Downy plant response rating (0 to 100 scale) ([1]; 13 to 15 days): 5
- Plant response rating, Bromegrass, Downy [1, 13]: 0
- Plant response rating, Bromegrass, Downy [1, 14]: 5
- Plant response rating, Bromegrass, Downy [1, 15]: 10
- Plant response rating, Foxtail, Giant [2, 13]: 75
- Plant response rating, Foxtail, Giant [2, 14]: 90
- Plant response rating, Foxtail, Giant [2, 15]: 98
- Plant response rating, Goosegrass [3, 13]: 60
- Plant response rating, Goosegrass [3, 14]: 90
- Plant response rating, Goosegrass [3, 15]: 90
- Plant response rating, Foxtail, Green [4, 13]: 65
- Plant response rating, Foxtail, Green [4, 14]: 90
- Plant response rating, Foxtail, Green [4, 15]: 95
- Plant response rating, Johnsongrass [5, 13]: 50
- Plant response rating, Johnsongrass [5, 14]: 65
- Plant response rating, Johnsongrass [5, 15]: 70
- Plant response rating, Kochia (kochia (Kochia scoparia); [13]): 85
- Plant response rating, Kochia (kochia (Kochia scoparia); [14]): 98
- Plant response rating, Kochia (kochia (Kochia scoparia); [15]): 100
- Plant response rating, Lambsquarters [6, 13]: 98
- Plant response rating, Lambsquarters [6, 14]: 100
- Plant response rating, Lambsquarters [6, 15]: 100
- Plant response rating, Crabgrass, Large [7, 13]: 75
- Plant response rating, Crabgrass, Large [7, 14]: 95
- Plant response rating, Crabgrass, Large [7, 15]: 100
- Plant response rating, Pigweed [8, 13]: 80
- Plant response rating, Pigweed [8, 14]: 100
- Plant response rating, Pigweed [8, 15]: 100
- Plant response rating, Velvetleaf [9, 13]: 85
- Plant response rating, Velvetleaf [9, 14]: 100
- Plant response rating, Velvetleaf [9, 15]: 100
- Plant response rating, Wheat [10, 13]: 0
- Plant response rating, Wheat [10, 14]: 0
- Plant response rating, Wheat [10, 15]: 0
- Plant response rating, Cupgrass, Woolly [11, 13]: 70
- Plant response rating, Cupgrass, Woolly [11, 14]: 75
- Plant response rating, Cupgrass, Woolly [11, 15]: 80
- Plant response rating, Nutsedge, Yellow [12, 13]: 20
- Plant response rating, Nutsedge, Yellow [12, 14]: 55
- Plant response rating, Nutsedge, Yellow [12, 15]: 65
